Measured values reported in the supplement of paper PMC4977894.
± gives the standard deviation of the averaged measurements.

What was measured:
[1] = test system: Homo sapiens (human subject panel, olfactory perception); experiment: perceived odor familiarity rating (rating 0-100); higher = more familiar
How it was run: (§1)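 Stimuli were molecules diluted in paraffin oil at high and low concentrations, with 1 mL of each sniffed in randomized order across ten visits of 100 stimuli. Participants were 55 healthy humans aged 18–50, excluding the six lowest performers. Subjects who smelled a stimulus moved a computerized slider away from its starting point of 50, and positions were rescaled to 0–100. Familiarity, intensity and pleasantness are each reported as an average over subjects.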

[2] = test system: Homo sapiens (human subject panel, olfactory perception); experiment: perceived odor intensity rating (rating 0-100); higher = stronger perceived smell
How it was run: as §1

[3] = test system: Homo sapiens (human subject panel, olfactory perception); experiment: perceived odor pleasantness rating (rating 0-100); higher = more pleasant
How it was run: as §1

[4] = odor dilution in paraffin oil: 1/10
[5] = odor dilution in paraffin oil: 1/1,000
[6] = odor dilution in paraffin oil: 1/100,000
[7] = odor dilution in paraffin oil: 1/10,000,000

| Compound | perceived odor familiarity rating [1, 4] | perceived odor familiarity rating [1, 5] | perceived odor intensity rating [2, 4] | perceived odor intensity rating [2, 5] | perceived odor pleasantness rating [3, 4] | perceived odor pleasantness rating [3, 5] | perceived odor familiarity rating [1, 6] | perceived odor intensity rating [2, 6] | perceived odor pleasantness rating [3, 6] | perceived odor familiarity rating [1, 7] | perceived odor intensity rating [2, 7] | perceived odor pleasantness rating [3, 7] |
| --- | --- | --- | --- | --- | --- | --- | --- | --- | --- | --- | --- | --- |
| CC(O)CO (stereo unspecified) [Propylene glycol] | 52.2 ± 30 | 33.7 ± 29 | 45.8 ± 34 | 10.5 ± 13 | 46.2 ± 25 | 42.5 ± 25 | – | – | – | – | – | – |
| CC(=O)Oc1ccc(C)cc1 [p-Tolyl acetate] | – | 59.6 ± 28 | – | 72.6 ± 19 | – | 47 ± 26 | 46.8 ± 31 | 60.9 ± 28 | 29 ± 25 | – | – | – |
| c1ccccc1 [Benzene] | – | 26.1 ± 24 | – | 11.2 ± 14 | – | 51.7 ± 20 | 27.4 ± 25 | 19.8 ± 26 | 39.4 ± 22 | – | – | – |
| CC(C)c1ccc(C=O)cc1 [cuminaldehyde] | – | 50.9 ± 35 | – | 59.1 ± 31 | – | 51.2 ± 28 | 31.3 ± 26 | 16.2 ± 20 | 58.1 ± 26 | – | – | – |
| CCCCCC/C=C/C(=O)OC [Methyl trans-2-nonenoate] | – | 53.4 ± 27 | – | 49.1 ± 27 | – | 50.3 ± 27 | 37.1 ± 26 | 20.3 ± 22 | 56.4 ± 17 | – | – | – |
| CC(C)CCOC(=O)/C=C/c1ccccc1 [Isoamyl cinnamate] | – | 25.2 ± 25 | – | 18.9 ± 23 | – | 38.8 ± 23 | 40.7 ± 32 | 22.5 ± 26 | 56.7 ± 24 | – | – | – |
| NCCCC[C@H](N)C(=O)O [L-Lysine] | 45.4 ± 34 | 48.9 ± 31 | 81.7 ± 22 | 59.1 ± 30 | 18.5 ± 24 | 27.4 ± 22 | – | – | – | – | – | – |
| CC(C)=CCC/C(C)=C\CO [Nerol] | – | 60.3 ± 30 | – | 71.1 ± 22 | – | 61.4 ± 24 | 39.8 ± 33 | 24.3 ± 27 | 48.8 ± 28 | – | – | – |
| C1CCNC1 [Pyrrolidine] | – | – | – | – | – | – | 28.9 ± 29 | 26.9 ± 26 | 40.7 ± 19 | 37.2 ± 27 | 26.6 ± 24 | 37.5 ± 22 |
| COc1ccccc1C=O [o-Anisaldehyde] | – | 45.8 ± 27 | – | 70 ± 25 | – | 32 ± 22 | 41.2 ± 27 | 38.5 ± 27 | 38 ± 22 | – | – | – |
| CCC(C)c1nccs1 (stereo unspecified) [2-(1-Methylpropyl)thiazole] | – | 41.3 ± 32 | – | 83.9 ± 17 | – | 25.7 ± 25 | 43.9 ± 31 | 55.6 ± 31 | 31.8 ± 23 | – | – | – |
| CC1(C)C2CC=C(C=O)C1C2 [(1R)-(-)-Myrtenal] | – | – | – | – | – | – | 48.3 ± 31 | 62.4 ± 26 | 40.3 ± 25 | 40.7 ± 33 | 33.8 ± 31 | 50.1 ± 24 |
| SCCCCCCS [1,6-Hexanedithiol] | – | – | – | – | – | – | 51.5 ± 33 | 74.8 ± 24 | 24.9 ± 26 | 36.8 ± 29 | 33.8 ± 34 | 40.1 ± 25 |
| C[C@@]12C=CC[C@H]1[C@@H]1CCC3=CC(=O)CC[C@]3(C)[C@H]1CC2 [Androstadienone] | – | 45.8 ± 34 | – | 63.1 ± 32 | – | 29.2 ± 24 | 31.6 ± 30 | 38.2 ± 35 | 38.6 ± 27 | – | – | – |
| Cc1cccc2nccnc12 [5-Methylquinoxaline] | – | – | – | – | – | – | 51.8 ± 31 | 49 ± 31 | 45.7 ± 27 | 23.7 ± 32 | 19.4 ± 29 | 48.6 ± 30 |
| OCCc1ccccc1 [2-phenylethanol] | – | 61.9 ± 30 | – | 70 ± 26 | – | 52.8 ± 30 | 61.8 ± 29 | 59.6 ± 29 | 63.1 ± 24 | – | – | – |
| CCCCCC(C)=O [2-heptanone] | – | 52.7 ± 29 | – | 71.1 ± 22 | – | 53.8 ± 25 | 23.9 ± 22 | 25.4 ± 27 | 51.9 ± 26 | – | – | – |
| CC1COC(c2ccccc2)O1 (stereo unspecified) [Benzaldehyde propylene glycol acetal] | – | 36.3 ± 27 | – | 50.5 ± 29 | – | 45.5 ± 23 | 34.2 ± 22 | 28.8 ± 32 | 47.2 ± 22 | – | – | – |

| Compound | perceived odor familiarity rating [1, 4] | perceived odor familiarity rating [1, 5] | perceived odor intensity rating [2, 4] | perceived odor intensity rating [2, 5] | perceived odor pleasantness rating [3, 4] | perceived odor pleasantness rating [3, 5] | perceived odor familiarity rating [1, 6] | perceived odor intensity rating [2, 6] | perceived odor pleasantness rating [3, 6] | perceived odor familiarity rating [1, 7] | perceived odor intensity rating [2, 7] | perceived odor pleasantness rating [3, 7] |
| --- | --- | --- | --- | --- | --- | --- | --- | --- | --- | --- | --- | --- |
| Cc1ccnc2ccccc12 [4-Methylquinoline] | – | – | – | – | – | – | 33.1 ± 30 | 38.7 ± 30 | 40.5 ± 21 | 34.8 ± 28 | 20.8 ± 22 | 49.5 ± 24 |
| Sc1ccccc1 [Benzenethiol] | – | – | – | – | – | – | 45.1 ± 30 | 63.4 ± 34 | 24.6 ± 23 | 31.3 ± 28 | 13 ± 22 | 41.9 ± 24 |
| CCCC(=O)OCCC(C)C [Isoamyl butyrate] | – | 51.4 ± 31 | – | 63.4 ± 26 | – | 52.8 ± 28 | 36.4 ± 32 | 20.4 ± 28 | 45.5 ± 23 | – | – | – |
| CCOC(=O)CC(C)O (stereo unspecified) [ethyl-3-hydroxybutyrate] | – | 62 ± 31 | – | 58.1 ± 32 | – | 75.4 ± 18 | 37.4 ± 29 | 38.3 ± 32 | 42 ± 23 | – | – | – |
| COc1ccc(C=O)cc1OC [Veratraldehyde] | 75.1 ± 26 | 53 ± 28 | 74.1 ± 23 | 35.2 ± 29 | 75.3 ± 22 | 62.4 ± 22 | – | – | – | – | – | – |
| C=CCc1ccc(OC)cc1 [4-Allylanisole] | – | 64.2 ± 28 | – | 60.8 ± 26 | – | 60.8 ± 24 | 28.7 ± 27 | 22.3 ± 29 | 54.5 ± 24 | – | – | – |
| O=C(OCCc1ccccc1)c1ccco1 [Phenethyl 2-furoate] | – | 52.4 ± 37 | – | 44.8 ± 31 | – | 58.7 ± 25 | 40.5 ± 34 | 24.1 ± 30 | 50.6 ± 24 | – | – | – |
| CC/C=C\CCO [cis-3-Hexen-1-ol] | – | 69.6 ± 30 | – | 81.9 ± 16 | – | 51 ± 31 | 60.5 ± 30 | 39.7 ± 28 | 60 ± 22 | – | – | – |
| N[C@@H](Cc1ccccc1)C(=O)O [L-Phenylalanine] | 39.1 ± 28 | 33.7 ± 31 | 34.4 ± 33 | 30.1 ± 30 | 39.9 ± 28 | 44.3 ± 29 | – | – | – | – | – | – |
| CCc1ccc(O)c(OC)c1 [4-Ethylguaiacol] | – | 57.6 ± 32 | – | 78 ± 17 | – | 41.7 ± 27 | 52.1 ± 32 | 69.4 ± 23 | 43.8 ± 24 | – | – | – |
| O=C1CCc2ccccc2O1 [Dihydrocoumarin] | – | 59.7 ± 29 | – | 70.9 ± 19 | – | 64.8 ± 23 | 42.2 ± 30 | 35.5 ± 30 | 64.6 ± 22 | – | – | – |
| C=CCOC(=O)CCCCC [allyl hexanoate] | – | 64.1 ± 27 | – | 57.3 ± 29 | – | 71.8 ± 22 | 34.4 ± 29 | 24.9 ± 27 | 49.2 ± 19 | – | – | – |
| C=C(C)C1CC=C(C)C(=O)C1 (single isomer, unassigned; (-)) [(-)-Carvone] | 81.2 ± 24 | 77.9 ± 25 | 84.3 ± 15 | 72.6 ± 20 | 78.6 ± 16 | 78.2 ± 19 | – | – | – | – | – | – |
| CC(=O)/C=C/C1=C(C)CCCC1(C)C [beta-Ionone] | – | 52.4 ± 30 | – | 69.7 ± 25 | – | 49.2 ± 27 | 49.8 ± 31 | 50.6 ± 32 | 62.6 ± 25 | – | – | – |
| C=C(C)[C@H]1CC=C(C)CC1 [d-Limonene] | – | 43.6 ± 28 | – | 29.6 ± 26 | – | 52.6 ± 21 | 41.1 ± 28 | 45.4 ± 36 | 30.9 ± 25 | – | – | – |
| O=C(O)CCC(=O)O [Succinic acid] | 35.5 ± 25 | 35.5 ± 32 | 46.2 ± 35 | 32.3 ± 27 | 34.6 ± 24 | 36.1 ± 21 | – | – | – | – | – | – |
| II [Iodine] | 48.4 ± 33 | 41 ± 37 | 77.7 ± 29 | 32.4 ± 30 | 13.7 ± 22 | 51.6 ± 30 | – | – | – | – | – | – |
| CCCCCCOC(C)=O [hexyl acetate] | – | 58.2 ± 30 | – | 58 ± 30 | – | 63.1 ± 24 | 29.9 ± 26 | 12.7 ± 17 | 53.7 ± 23 | – | – | – |
